Legend:
HCMV UL97-C480F = test: HCMV reporter-based antiviral assay, drug-resistant mutant; format: cell-based, human cytomegalovirus; details: Human betaherpesvirus 5, read-out: Measured EC50 ref. drugs UL97-C480F
Procedure: (§1) For the infection experiments, stocks of the following recombinant, reporter protein-expressing viruses (GFP or YFP (i.e., green or yellow fluorescent protein, respectively)) were propagated (in permissive cells), determined in their infectious titers performing the respective reporter assays, stored by aliquots at −80 °C, and used for the assessment of antiviral drug activities: human cytomegalovirus HCMV AD169-GFP (HFFs); murine cytomegalovirus MCMV C3X-GFP (MEFs); guinea pig cytomegalovirus GPCMV v403-GFP (GPEFs); human herpesvirus type 6A HHV-6A U1102-GFP (J-Jhan); herpes simplex virus type 1 HSV-1 166v VP22-GFP (HFFs); varicella zoster virus VZV Oka-GFP (HFFs); Epstein-Barr virus EBV Akata-GFP (Akata-BX1-GFP carrier cells; kindly provided by Lindsey Hutt-Fletcher and Rona Scott, Dept. Microbiol. Immunol., LSUHSC Univ., Shreveport, LA, USA); and Kaposi’s sarcoma-associated herpesvirus KSHV rKSHV.219-GFP/RFP (in iSLK.219 carrier cells).
(§2) For HCMV AD169-GFP infection, the replication assay was based on a seeding of 225,000 HFFs or 13,500 HFFs in 12 well or 96 well plates, respectively, which were then inoculated with HCMV AD169-GFP [55] at an MOI of 0.25 GFP-FU/mL/7 d for a 90 min period of inoculum–cell adsorption, followed by a medium refreshment including the immediate addition of antiviral compounds. At 7 d p.i., the infected HFFs were either directly fixed with 10% formalin for 20 min at 4 °C (when used for infection in the 96 well format) or lysed and transferred to 96 well plates (when used for infection in the 12 well format) so that the reporter of viral replication could be quantified by GFP fluorometry using a Perkin Elmer Victor X4 Multimode Plate Reader (Perkin Elmer, Waltham, MA, USA).
(§3) Due to the fact that the HCMV-encoded protein kinase pUL97 represents a functional and structural ortholog of the host CDKs (vCDK/pUL97), the viral mutants of ORF-UL97 were assessed for sensitivity against CDK7 inhibitors.

HCMV UL97-H469V = test: as above; format: cell-based, human cytomegalovirus; details: Human betaherpesvirus 5, read-out: Measured EC50 ref. drugs UL97-H469V
Procedure: as §1, §2, §3

HCMV UL97-H411Y [1] = test: as above; format: cell-based, human cytomegalovirus; details: Human betaherpesvirus 5, read-out: Measured EC50 ref. drugs UL97-H411Y
Procedure: as §1, §2, §3

HCMV UL97-C592G = test: as above; format: cell-based, human cytomegalovirus; details: Human betaherpesvirus 5, read-out: Measured EC50 ref. drugs UL97-C592G
Procedure: as §1, §2, §3

HCMV UL97-L397R = test: as above; format: cell-based, human cytomegalovirus; details: Human betaherpesvirus 5, read-out: Measured EC50 ref. drugs UL97-L397R
Procedure: as §1, §2, §3

HCMV UL97-H520Q [2] = test: as above; format: cell-based, human cytomegalovirus; details: Human betaherpesvirus 5, read-out: Measured EC50 ref. drugs UL97-H520Q
Procedure: as §1, §2, §3

HCMV UL97-C603W = test: as above; format: cell-based, human cytomegalovirus; details: Human betaherpesvirus 5, read-out: Measured EC50 ref. drugs UL97-C603W
Procedure: as §1, §2, §3

HCMV UL97-T409M = test: as above; format: cell-based, human cytomegalovirus; details: Human betaherpesvirus 5, read-out: Measured EC50 ref. drugs UL97-T409M
Procedure: as §1, §2, §3

HCMV UL97-F342S = test: as above; format: cell-based, human cytomegalovirus; details: Human betaherpesvirus 5, read-out: Measured EC50 ref. drugs UL97-F342S
Procedure: as §1, §2, §3

HCMV UL97-H520Q [3] = tested on: HCMV UL97-H520Q; design: method as in PMID 31940472; key: R-high, high-level drug resistance; R-int, intermediate-level drug resistance; R-low, low-level drug resistance; S, drug sensitivity; details: cited from earlier work
[4] = Neutral Red uptake assay (NRA), uninfected HFFs; format: cell-based; details: human, read-out: CC50 (VZV-GFP system)
Procedure: The cytotoxic level of the compounds was determined by the use of an established quantitation of cell viability (i.e., Neutral Red uptake assay) performed after 3–7 d of compound incubation on uninfected cells (according to the respective duration of the antiviral reporter-based replication assay performed in parallel) as described earlier in [44].

HCMV UL97-H411Y [5] = tested on: HCMV UL97-H411Y; design: method as in PMID 31940472; key: R-high, high-level drug resistance; R-int, intermediate-level drug resistance; R-low, low-level drug resistance; S, drug sensitivity; details: cited from earlier work

SMILES	EC50 (HCMV UL97-C480F)	EC50 (HCMV UL97-H469V)	EC50 (HCMV UL97-H411Y [1])	EC50 (HCMV UL97-C592G)	EC50 (HCMV UL97-L397R)	EC50 (HCMV UL97-H520Q [2])	EC50 (HCMV UL97-C603W)	EC50 (HCMV UL97-T409M)	EC50 (HCMV UL97-F342S)	Reported phenotype UL97-H520Q (HCMV UL97-H520Q [3])	CC50 [4]	Reported phenotype UL97-H411Y (HCMV UL97-H411Y [5])
Nc1ccn(C[C@@H](CO)OCP(=O)(O)O)c(=O)n1 [CDV, cidofovir]	400 nM	180 nM	420 nM	400 nM	340 nM	100 nM	410 nM	260 nM	190 nM	S	> 100000 nM	S
Nc1nc(O)c2ncn(COC(CO)CO)c2n1 [GCV, ganciclovir]	10500 ± 2200 nM	1220 ± 200 nM	3760 ± 600 nM	4670 ± 1100 nM	2240 ± 500 nM	10700 ± 700 nM	9870 ± 1000 nM	1980 ± 200 nM	17100 ± 1500 nM	R-high	> 100000 nM	R-low
